How the values were obtained:
Format in all cases: in vitro ADME
Details in all cases: 30 min, 37 °C
CYP1A2 = target: T1, CYP1A2 (Homo sapiens, UniProt P05177); experiment: Monooxygenases activity screening, CYP1A2; parameters: key: +, detected; -, not detected
T1 construct: purchased Discovery Life Sciences (Huntsville, LA, USA); host or cells: baculovirus-infected insect cells (microsomes, Supersomes)
T1 sequence (P05177 1-516): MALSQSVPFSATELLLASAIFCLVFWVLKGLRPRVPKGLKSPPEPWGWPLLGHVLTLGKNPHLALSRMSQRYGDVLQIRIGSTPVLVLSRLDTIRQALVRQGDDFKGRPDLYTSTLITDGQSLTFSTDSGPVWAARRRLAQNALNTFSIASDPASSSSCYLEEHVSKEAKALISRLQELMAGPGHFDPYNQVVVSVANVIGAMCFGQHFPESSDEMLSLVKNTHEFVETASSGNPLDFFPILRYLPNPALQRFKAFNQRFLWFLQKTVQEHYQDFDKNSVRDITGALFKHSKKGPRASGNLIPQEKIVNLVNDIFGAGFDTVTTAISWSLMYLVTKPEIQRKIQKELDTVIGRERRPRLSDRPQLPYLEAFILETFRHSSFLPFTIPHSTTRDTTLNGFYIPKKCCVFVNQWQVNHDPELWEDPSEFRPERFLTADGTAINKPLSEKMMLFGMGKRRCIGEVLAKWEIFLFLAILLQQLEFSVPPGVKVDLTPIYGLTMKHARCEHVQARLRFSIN
Experimental: (§1) For incubations with CYP2A6 or CYP2C9, phosphate buffer was replaced with 90 mM Tris buffer, according to the manufacturer’s guideline. […] All incubations were done in duplicate and concentrations were fixed. Verapamil (25 µM) was incubated as a positive control.

CYP2A6 = target: T2, CYP2A6 (Homo sapiens, UniProt P11509); experiment: Monooxygenases activity screening, CYP2A6; parameters: key: +, detected; -, not detected
T2 construct: purchased Discovery Life Sciences (Huntsville, LA, USA); host or cells: baculovirus-infected insect cells (microsomes, Supersomes)
T2 sequence (P11509 1-494): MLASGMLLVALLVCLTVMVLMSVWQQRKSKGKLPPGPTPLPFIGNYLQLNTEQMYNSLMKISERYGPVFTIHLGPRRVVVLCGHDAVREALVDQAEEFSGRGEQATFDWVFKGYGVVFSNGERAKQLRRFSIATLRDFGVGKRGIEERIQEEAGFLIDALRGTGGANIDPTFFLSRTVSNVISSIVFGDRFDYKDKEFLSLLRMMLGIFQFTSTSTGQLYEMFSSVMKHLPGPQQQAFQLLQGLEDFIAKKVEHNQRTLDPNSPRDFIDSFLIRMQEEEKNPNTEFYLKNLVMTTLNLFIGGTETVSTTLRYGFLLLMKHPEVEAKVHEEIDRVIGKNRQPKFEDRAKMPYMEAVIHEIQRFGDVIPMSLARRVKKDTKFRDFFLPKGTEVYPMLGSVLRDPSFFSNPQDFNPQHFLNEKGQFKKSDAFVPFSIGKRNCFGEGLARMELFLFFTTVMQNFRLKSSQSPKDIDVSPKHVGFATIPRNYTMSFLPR
Experimental: as §1

CYP2B6 = target: T3, CYP2B6 (Homo sapiens, UniProt P20813); experiment: Monooxygenases activity screening, CYP2B6; parameters: key: +, detected; -, not detected
T3 construct: purchased Discovery Life Sciences (Huntsville, LA, USA); host or cells: baculovirus-infected insect cells (microsomes, Supersomes)
T3 sequence (P20813 1-491): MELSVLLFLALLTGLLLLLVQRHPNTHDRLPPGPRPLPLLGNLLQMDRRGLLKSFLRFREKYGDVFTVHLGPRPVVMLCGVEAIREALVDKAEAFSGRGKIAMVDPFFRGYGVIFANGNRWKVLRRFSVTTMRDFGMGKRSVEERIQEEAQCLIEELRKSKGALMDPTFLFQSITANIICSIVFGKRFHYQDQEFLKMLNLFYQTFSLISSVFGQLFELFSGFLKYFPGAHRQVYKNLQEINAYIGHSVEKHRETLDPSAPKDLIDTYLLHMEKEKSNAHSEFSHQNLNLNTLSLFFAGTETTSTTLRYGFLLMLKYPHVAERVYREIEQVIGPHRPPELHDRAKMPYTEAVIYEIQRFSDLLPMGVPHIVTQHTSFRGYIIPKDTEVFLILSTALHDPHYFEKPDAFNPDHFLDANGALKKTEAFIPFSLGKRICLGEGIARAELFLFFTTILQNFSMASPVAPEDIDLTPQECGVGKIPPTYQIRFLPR
Experimental: as §1

CYP2C8 = target: T4, CYP2C8 (Homo sapiens, UniProt P10632); experiment: Monooxygenases activity screening, CYP2C8; parameters: key: +, detected; -, not detected
T4 construct: purchased Discovery Life Sciences (Huntsville, LA, USA); host or cells: baculovirus-infected insect cells (microsomes, Supersomes)
T4 sequence (P10632 1-490): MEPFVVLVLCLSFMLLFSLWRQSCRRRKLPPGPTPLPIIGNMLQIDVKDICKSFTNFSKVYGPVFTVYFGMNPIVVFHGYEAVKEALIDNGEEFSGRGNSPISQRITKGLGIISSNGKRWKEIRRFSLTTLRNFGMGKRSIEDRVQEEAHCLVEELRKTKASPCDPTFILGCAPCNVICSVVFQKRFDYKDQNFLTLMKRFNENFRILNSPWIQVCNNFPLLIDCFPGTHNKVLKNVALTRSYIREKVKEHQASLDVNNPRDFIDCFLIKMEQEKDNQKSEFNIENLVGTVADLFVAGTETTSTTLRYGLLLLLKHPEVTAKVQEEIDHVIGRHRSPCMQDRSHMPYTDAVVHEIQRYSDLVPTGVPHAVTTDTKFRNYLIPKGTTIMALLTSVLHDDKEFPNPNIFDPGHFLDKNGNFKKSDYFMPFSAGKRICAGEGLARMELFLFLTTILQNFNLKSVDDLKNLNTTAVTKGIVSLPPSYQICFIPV
Experimental: as §1

CYP2C9 = target: T5, CYP2C9 (Homo sapiens, UniProt P11712); experiment: Monooxygenases activity screening, CYP2C9; parameters: key: +, detected; -, not detected
T5 construct: purchased Discovery Life Sciences (Huntsville, LA, USA); host or cells: baculovirus-infected insect cells (microsomes, Supersomes)
T5 sequence (P11712 whole entry): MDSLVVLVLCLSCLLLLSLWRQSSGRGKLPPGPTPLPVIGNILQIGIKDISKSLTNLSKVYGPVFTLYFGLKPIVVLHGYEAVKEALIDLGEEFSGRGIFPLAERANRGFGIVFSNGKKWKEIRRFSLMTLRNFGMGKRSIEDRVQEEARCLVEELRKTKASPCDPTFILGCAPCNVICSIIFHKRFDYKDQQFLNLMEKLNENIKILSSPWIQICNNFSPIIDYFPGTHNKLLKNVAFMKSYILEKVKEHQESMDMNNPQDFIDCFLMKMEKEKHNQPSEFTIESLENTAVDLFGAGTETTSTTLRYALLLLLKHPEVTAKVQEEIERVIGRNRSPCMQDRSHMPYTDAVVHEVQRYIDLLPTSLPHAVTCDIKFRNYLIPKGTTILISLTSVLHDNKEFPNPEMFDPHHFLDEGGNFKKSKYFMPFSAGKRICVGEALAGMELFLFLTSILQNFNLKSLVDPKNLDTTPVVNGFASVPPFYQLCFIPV
Experimental: as §1

CYP2C19 = target: T6, CYP2C19 (Homo sapiens, UniProt P33261); experiment: Monooxygenases activity screening, CYP2C19; parameters: key: +, detected; -, not detected
T6 construct: purchased Discovery Life Sciences (Huntsville, LA, USA); host or cells: baculovirus-infected insect cells (microsomes, Supersomes)
T6 sequence (P33261 whole entry): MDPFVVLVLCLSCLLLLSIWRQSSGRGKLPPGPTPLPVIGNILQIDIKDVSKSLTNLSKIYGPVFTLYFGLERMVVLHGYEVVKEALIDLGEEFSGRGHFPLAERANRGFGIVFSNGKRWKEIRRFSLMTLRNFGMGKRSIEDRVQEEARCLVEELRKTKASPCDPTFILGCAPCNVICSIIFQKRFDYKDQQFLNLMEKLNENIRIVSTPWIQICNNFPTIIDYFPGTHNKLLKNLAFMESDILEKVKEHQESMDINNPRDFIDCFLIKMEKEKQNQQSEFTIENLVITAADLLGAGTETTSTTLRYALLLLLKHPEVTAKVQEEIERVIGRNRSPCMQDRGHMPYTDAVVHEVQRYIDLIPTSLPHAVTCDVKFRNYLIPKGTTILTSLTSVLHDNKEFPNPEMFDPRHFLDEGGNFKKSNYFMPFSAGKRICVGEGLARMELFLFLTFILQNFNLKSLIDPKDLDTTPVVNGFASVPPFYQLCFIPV
Experimental: as §1

CYP2D6 = target: T7, CYP2D6 (Homo sapiens, UniProt P10635); experiment: Monooxygenases activity screening, CYP2D6; parameters: key to one-step metabolite detected in CYP2D6 incubation: +, detected; -, not detected
T7 construct: purchased Discovery Life Sciences (Huntsville, LA, USA); host or cells: baculovirus-infected insect cells (microsomes, Supersomes)
T7 sequence (P10635 whole entry): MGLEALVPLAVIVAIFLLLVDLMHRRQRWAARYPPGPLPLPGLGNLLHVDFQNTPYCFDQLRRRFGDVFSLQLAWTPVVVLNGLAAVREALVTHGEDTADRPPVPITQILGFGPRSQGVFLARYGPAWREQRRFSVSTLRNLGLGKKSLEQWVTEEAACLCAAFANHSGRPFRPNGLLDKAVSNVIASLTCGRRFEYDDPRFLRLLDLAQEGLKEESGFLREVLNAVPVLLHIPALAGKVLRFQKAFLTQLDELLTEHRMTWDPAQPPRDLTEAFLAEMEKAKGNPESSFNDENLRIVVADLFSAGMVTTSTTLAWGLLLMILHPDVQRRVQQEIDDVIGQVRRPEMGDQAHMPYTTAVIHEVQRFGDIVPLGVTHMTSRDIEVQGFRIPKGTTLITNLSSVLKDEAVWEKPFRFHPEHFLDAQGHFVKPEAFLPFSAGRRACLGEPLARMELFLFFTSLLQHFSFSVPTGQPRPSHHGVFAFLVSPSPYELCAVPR
Experimental: as §1

CYP2E1 = target: T8, CYP2E1 (Homo sapiens, UniProt P05181); experiment: Monooxygenases activity screening, CYP2E1; parameters: key: +, detected; -, not detected
T8 construct: purchased Discovery Life Sciences (Huntsville, LA, USA); host or cells: baculovirus-infected insect cells (microsomes, Supersomes)
T8 sequence (P05181 whole entry): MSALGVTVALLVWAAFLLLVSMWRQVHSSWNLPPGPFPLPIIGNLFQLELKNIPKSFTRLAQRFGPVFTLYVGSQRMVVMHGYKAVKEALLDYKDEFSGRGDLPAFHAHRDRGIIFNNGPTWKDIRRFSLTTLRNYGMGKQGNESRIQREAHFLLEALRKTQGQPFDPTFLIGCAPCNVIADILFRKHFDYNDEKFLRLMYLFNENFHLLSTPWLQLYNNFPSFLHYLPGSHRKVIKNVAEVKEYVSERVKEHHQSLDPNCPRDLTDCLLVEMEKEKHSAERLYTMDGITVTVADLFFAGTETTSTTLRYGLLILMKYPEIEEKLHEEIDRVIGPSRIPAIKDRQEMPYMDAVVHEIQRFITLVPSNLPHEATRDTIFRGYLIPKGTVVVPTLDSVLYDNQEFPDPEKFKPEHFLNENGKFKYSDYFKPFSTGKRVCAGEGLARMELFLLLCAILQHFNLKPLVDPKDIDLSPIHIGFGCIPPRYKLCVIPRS
Experimental: as §1

CYP3A4 = target: T9, CYP3A4 (Homo sapiens, UniProt P08684); experiment: Monooxygenases activity screening, CYP3A4; parameters: key: +, detected; -, not detected
T9 construct: purchased Discovery Life Sciences (Huntsville, LA, USA); host or cells: baculovirus-infected insect cells (microsomes, Supersomes)
T9 sequence (P08684 whole entry): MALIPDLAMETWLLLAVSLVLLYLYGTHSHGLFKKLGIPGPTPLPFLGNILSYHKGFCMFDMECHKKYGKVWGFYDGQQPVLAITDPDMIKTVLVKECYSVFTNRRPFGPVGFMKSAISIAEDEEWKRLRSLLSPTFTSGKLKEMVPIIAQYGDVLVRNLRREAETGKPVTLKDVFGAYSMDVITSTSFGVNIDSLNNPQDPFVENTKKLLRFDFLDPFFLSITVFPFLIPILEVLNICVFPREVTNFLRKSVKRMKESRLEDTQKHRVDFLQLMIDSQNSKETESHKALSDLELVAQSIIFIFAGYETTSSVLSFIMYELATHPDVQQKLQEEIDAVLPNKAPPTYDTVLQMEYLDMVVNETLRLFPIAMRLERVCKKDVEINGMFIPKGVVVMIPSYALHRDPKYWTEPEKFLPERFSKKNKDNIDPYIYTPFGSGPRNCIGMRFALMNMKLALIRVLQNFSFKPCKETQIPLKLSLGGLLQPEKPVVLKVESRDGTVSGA
Experimental: as §1

CYP3A5 = target: T10, CYP3A5 (Homo sapiens, UniProt P20815); experiment: Monooxygenases activity screening, CYP3A5; parameters: key: +, detected; -, not detected
T10 construct: purchased Discovery Life Sciences (Huntsville, LA, USA); host or cells: baculovirus-infected insect cells (microsomes, Supersomes)
T10 sequence (P20815 whole entry): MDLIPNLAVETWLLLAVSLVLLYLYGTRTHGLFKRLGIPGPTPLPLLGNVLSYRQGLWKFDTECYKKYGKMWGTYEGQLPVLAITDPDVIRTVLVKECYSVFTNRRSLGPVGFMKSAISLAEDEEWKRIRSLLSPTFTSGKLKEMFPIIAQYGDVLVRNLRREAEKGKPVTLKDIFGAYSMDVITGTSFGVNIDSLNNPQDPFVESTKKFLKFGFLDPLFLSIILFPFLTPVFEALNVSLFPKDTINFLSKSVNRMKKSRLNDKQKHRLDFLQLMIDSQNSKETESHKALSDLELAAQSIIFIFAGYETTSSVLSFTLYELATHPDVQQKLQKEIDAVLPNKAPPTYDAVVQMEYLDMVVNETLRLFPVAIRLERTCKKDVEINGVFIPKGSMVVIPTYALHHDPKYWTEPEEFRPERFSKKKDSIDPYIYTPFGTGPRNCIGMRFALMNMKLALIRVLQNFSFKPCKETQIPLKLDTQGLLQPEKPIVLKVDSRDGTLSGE
Experimental: as §1

[1] = target: T11, flavin-containing monooxygenase 3 (FMO3) (Homo sapiens, UniProt P31513); experiment: Monooxygenases activity screening, FMO3; parameters: key: +, detected; -, not detected
T11 construct: purchased Discovery Life Sciences (Huntsville, LA, USA); host or cells: baculovirus-infected insect cells (microsomes, Supersomes)
T11 sequence (P31513 1-532): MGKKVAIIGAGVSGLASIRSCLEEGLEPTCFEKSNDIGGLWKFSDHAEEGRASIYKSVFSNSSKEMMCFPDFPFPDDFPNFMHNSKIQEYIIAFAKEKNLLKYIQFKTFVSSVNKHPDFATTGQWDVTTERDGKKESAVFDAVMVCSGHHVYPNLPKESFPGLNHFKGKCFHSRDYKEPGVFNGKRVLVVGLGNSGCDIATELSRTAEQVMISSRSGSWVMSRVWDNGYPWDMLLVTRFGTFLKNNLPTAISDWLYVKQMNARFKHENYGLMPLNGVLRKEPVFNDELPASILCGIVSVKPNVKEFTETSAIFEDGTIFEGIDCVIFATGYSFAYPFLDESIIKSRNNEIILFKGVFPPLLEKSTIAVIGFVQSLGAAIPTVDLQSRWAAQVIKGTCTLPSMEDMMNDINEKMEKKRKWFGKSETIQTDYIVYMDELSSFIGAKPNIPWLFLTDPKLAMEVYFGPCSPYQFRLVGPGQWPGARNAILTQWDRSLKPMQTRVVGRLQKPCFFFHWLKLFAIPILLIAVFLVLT
Experimental: as §1

[2] = substrate 4MeO-αP-VP 25 µM, Table S3.3
[3] = substrate 4MeS-NE-BP 25 µM, Table S3.4

Compound | one-step metabolite detected in CYP1A2 incubation (CYP1A2; [2]) | one-step metabolite detected in CYP2A6 incubation (CYP2A6; [2]) | one-step metabolite detected in CYP2B6 incubation (CYP2B6; [2]) | one-step metabolite detected in CYP2C8 incubation (CYP2C8; [2]) | one-step metabolite detected in CYP2C9 incubation (CYP2C9; [2]) | one-step metabolite detected in CYP2C19 incubation (CYP2C19; [2]) | one-step metabolite detected in CYP2D6 incubation (CYP2D6; [2]) | one-step metabolite detected in CYP2E1 incubation (CYP2E1; [2]) | one-step metabolite detected in CYP3A4 incubation (CYP3A4; [2]) | one-step metabolite detected in CYP3A5 incubation (CYP3A5; [2]) | one-step metabolite detected in FMO3 incubation [1, 2] | one-step metabolite detected in CYP1A2 incubation (CYP1A2; [3]) | one-step metabolite detected in CYP2A6 incubation (CYP2A6; [3]) | one-step metabolite detected in CYP2B6 incubation (CYP2B6; [3]) | one-step metabolite detected in CYP2C8 incubation (CYP2C8; [3]) | one-step metabolite detected in CYP2C9 incubation (CYP2C9; [3]) | one-step metabolite detected in CYP2C19 incubation (CYP2C19; [3]) | one-step metabolite detected in CYP2D6 incubation (CYP2D6; [3]) | one-step metabolite detected in CYP2E1 incubation (CYP2E1; [3]) | one-step metabolite detected in CYP3A4 incubation (CYP3A4; [3]) | other results
CCCC(C(=O)c1ccc(O)cc1)N1CCCC1 (centres unmarked) [MO3.2] | + | - | - | + | - | + | + | - | + | - | - |  |  |  |  |  |  |  |  |  | 
CCCC(C(=O)c1ccc(OC)cc1)[N+]1([O-])CCCC1 (centres unmarked) [MO3.4] | + | + | - | - | - | - | + | - | + | - | + |  |  |  |  |  |  |  |  |  | 
CCNC(CC)C(=O)c1ccc(S)cc1 (centres unmarked) [MT1.1] |  |  |  |  |  |  |  |  |  |  |  | - | - | - | - | - | - | + | - | - | one-step metabolite detected in CYP3A5 incubation (CYP3A5; [3]): -; one-step metabolite detected in FMO3 incubation [1, 3]: -
CCC(N)C(=O)c1ccc(SC)cc1 (centres unmarked) [MT1.3] |  |  |  |  |  |  |  |  |  |  |  | + | - | + | + | - | + | + | - | + | one-step metabolite detected in CYP3A5 incubation (CYP3A5; [3]): +; one-step metabolite detected in FMO3 incubation [1, 3]: -

From article PMC12858467, “In vitro toxicokinetics and metabolic profiling of methoxycathinones and methylthiocathinones using human liver systems and hyphenated mass spectrometry” (Archives of Toxicology, 2025)
